# Organism: Rattus norvegicus
# Assay: DrugMatrix - Regimen: Daily Repeat
# Format: toxicity, organism-based, Sprague-Dawley
# Set-up: regimen Daily Repeat, gender Male, age 6-8 weeks
# Conditions: in vivo, po, route oral GAVAGE, vehicle 100 % WATER; for ABSOLUTE BASOPHIL / ABSOLUTE EOSINOPHIL / ABSOLUTE LYMPHOCYTE / ABSOLUTE MONOCYTE / ABSOLUTE SEGMENTED NEUTROPHIL / BASOPHIL / EOSINOPHIL / ERYTHROCYTE COUNT / HEMATOCRIT / HEMOGLOBIN / LEUKOCYTE COUNT / LYMPHOCYTE / MEAN CORPUSCULAR HEMOGLOBIN / MEAN CORPUSCULAR HEMOGLOBIN CONCENTRATION / MEAN CORPUSCULAR VOLUME / MONOCYTE / NEUTROPHIL / NUCLEATED RED BLOOD CELLS / PLATELET COUNT: tissue Blood; for ALANINE AMINOTRANSFERASE / ALBUMIN / ALKALINE PHOSPHATASE / ASPARTATE AMINOTRANSFERASE / BLOOD UREA NITROGEN / CARBON DIOXIDE / CHLORIDE / CHOLESTEROL / CREATINE PHOSPHOKINASE / CREATININE / GLUCOSE / LACTATE DEHYDROGENASE / LIPASE / PHOSPHORUS / POTASSIUM / SODIUM / TOTAL BILIRUBIN / TOTAL PROTEIN / URIC ACID: tissue Plasma
# [1] = 60 mg/kg, 120 h, dose level Low, time 5 day
# [2] = 1300 mg/kg, 72 h, dose level High, time 3 day
# [3] = 1300 mg/kg, 120 h, dose level High, time 5 day
smiles,measurement,setting,value
CC(C)C[C@H](NC(=O)[C@@H](O)[C@H](N)Cc1ccccc1)C(=O)O [UBENIMEX],ABSOLUTE BASOPHIL,[1],0 CELLS/uL
same,ABSOLUTE EOSINOPHIL,[1],0 CELLS/uL
same,ABSOLUTE LYMPHOCYTE,[1],15131 CELLS/uL
same,ABSOLUTE MONOCYTE,[1],122 CELLS/uL
same,ABSOLUTE SEGMENTED NEUTROPHIL,[1],847 CELLS/uL
same,BASOPHIL,[1],0%
same,EOSINOPHIL,[1],0%
same,ERYTHROCYTE COUNT,[1],5.87 x10E6/uL
same,HEMATOCRIT,[1],36.17%
same,HEMOGLOBIN,[1],14.03 G/DL
same,LEUKOCYTE COUNT,[1],16.1 x10E3/uL
same,LYMPHOCYTE,[1],94.33%
same,MEAN CORPUSCULAR HEMOGLOBIN,[1],23.9 pg
same,MEAN CORPUSCULAR HEMOGLOBIN CONCENTRATION,[1],38.77 G/DL
same,MEAN CORPUSCULAR VOLUME,[1],61.53 fL
same,MONOCYTE,[1],0.67%
same,NEUTROPHIL,[1],5%
same,NUCLEATED RED BLOOD CELLS,[1],0 /100WBC
same,PLATELET COUNT,[1],1187.67 x10E3/uL
same,ALANINE AMINOTRANSFERASE,[1],53.33 u/L
same,ALBUMIN,[1],4.3 G/DL
same,ALKALINE PHOSPHATASE,[1],289.33 u/L
same,ASPARTATE AMINOTRANSFERASE,[1],93.33 u/L
same,BLOOD UREA NITROGEN,[1],16.33 mg/dL
same,CARBON DIOXIDE,[1],23.67 mmol/L
same,CHLORIDE,[1],105 MEQ/L
same,CHOLESTEROL,[1],62.33 mg/dL
same,CREATINE PHOSPHOKINASE,[1],463.33 u/L
same,CREATININE,[1],0.26 mg/dL
same,GLUCOSE,[1],146.33 mg/dL
same,LACTATE DEHYDROGENASE,[1],498.67 u/L
same,LIPASE,[1],9 u/L
same,PHOSPHORUS,[1],11.2 mg/dL
same,POTASSIUM,[1],5.71 MEQ/L
same,SODIUM,[1],144.27 MEQ/L
same,TOTAL BILIRUBIN,[1],0.13 mg/dL
same,TOTAL PROTEIN,[1],6.1 G/DL
same,URIC ACID,[1],1.37 mg/dL
same,ABSOLUTE BASOPHIL,[2],0 CELLS/uL
same,ABSOLUTE EOSINOPHIL,[2],88 CELLS/uL
same,ABSOLUTE LYMPHOCYTE,[2],12244.33 CELLS/uL
same,ABSOLUTE MONOCYTE,[2],144 CELLS/uL
same,ABSOLUTE SEGMENTED NEUTROPHIL,[2],1690.33 CELLS/uL
same,BASOPHIL,[2],0%
same,EOSINOPHIL,[2],0.67%
same,ERYTHROCYTE COUNT,[2],5.72 x10E6/uL
same,HEMATOCRIT,[2],34.83%
same,HEMOGLOBIN,[2],14.07 G/DL
same,LEUKOCYTE COUNT,[2],14.17 x10E3/uL
same,LYMPHOCYTE,[2],86.33%
same,MEAN CORPUSCULAR HEMOGLOBIN,[2],24.63 pg
same,MEAN CORPUSCULAR HEMOGLOBIN CONCENTRATION,[2],40.37 G/DL
same,MEAN CORPUSCULAR VOLUME,[2],60.93 fL
same,MONOCYTE,[2],1%
same,NEUTROPHIL,[2],12%
same,NUCLEATED RED BLOOD CELLS,[2],0 /100WBC
same,PLATELET COUNT,[2],1238.33 x10E3/uL
same,ALANINE AMINOTRANSFERASE,[2],54.33 u/L
same,ALBUMIN,[2],4 G/DL
same,ALKALINE PHOSPHATASE,[2],304.33 u/L
same,ASPARTATE AMINOTRANSFERASE,[2],87 u/L
same,BLOOD UREA NITROGEN,[2],14 mg/dL
same,CARBON DIOXIDE,[2],23.67 mmol/L
same,CHLORIDE,[2],102.33 MEQ/L
same,CHOLESTEROL,[2],63.33 mg/dL
same,CREATINE PHOSPHOKINASE,[2],350.33 u/L
same,CREATININE,[2],0.18 mg/dL
same,GLUCOSE,[2],197.67 mg/dL
same,LACTATE DEHYDROGENASE,[2],237.33 u/L
same,LIPASE,[2],9 u/L
same,PHOSPHORUS,[2],10.53 mg/dL
same,POTASSIUM,[2],5.18 MEQ/L
same,SODIUM,[2],142.5 MEQ/L
same,TOTAL BILIRUBIN,[2],0.17 mg/dL
same,TOTAL PROTEIN,[2],5.7 G/DL
same,URIC ACID,[2],1.27 mg/dL
same,ABSOLUTE BASOPHIL,[3],0 CELLS/uL
same,ABSOLUTE EOSINOPHIL,[3],28.67 CELLS/uL
same,ABSOLUTE LYMPHOCYTE,[3],12669 CELLS/uL
same,ABSOLUTE MONOCYTE,[3],277.67 CELLS/uL
same,ABSOLUTE SEGMENTED NEUTROPHIL,[3],1191.33 CELLS/uL
same,BASOPHIL,[3],0%
same,EOSINOPHIL,[3],0.33%
same,ERYTHROCYTE COUNT,[3],5.82 x10E6/uL
same,HEMATOCRIT,[3],35.73%
same,HEMOGLOBIN,[3],14.33 G/DL
same,LEUKOCYTE COUNT,[3],14.17 x10E3/uL
same,LYMPHOCYTE,[3],89.67%
same,MEAN CORPUSCULAR HEMOGLOBIN,[3],24.6 pg
same,MEAN CORPUSCULAR HEMOGLOBIN CONCENTRATION,[3],40.17 G/DL
same,MEAN CORPUSCULAR VOLUME,[3],61.37 fL
same,MONOCYTE,[3],2%
same,NEUTROPHIL,[3],8%
same,NUCLEATED RED BLOOD CELLS,[3],0 /100WBC
same,PLATELET COUNT,[3],1144.33 x10E3/uL
same,ALANINE AMINOTRANSFERASE,[3],48.33 u/L
same,ALBUMIN,[3],4.23 G/DL
same,ALKALINE PHOSPHATASE,[3],308.67 u/L
same,ASPARTATE AMINOTRANSFERASE,[3],76.67 u/L
same,BLOOD UREA NITROGEN,[3],16.67 mg/dL
same,CARBON DIOXIDE,[3],25.67 mmol/L
same,CHLORIDE,[3],108.67 MEQ/L
same,CHOLESTEROL,[3],58.33 mg/dL
same,CREATINE PHOSPHOKINASE,[3],244.67 u/L
same,CREATININE,[3],0.23 mg/dL
same,GLUCOSE,[3],155.67 mg/dL
same,LACTATE DEHYDROGENASE,[3],228.67 u/L
same,LIPASE,[3],10 u/L
same,PHOSPHORUS,[3],9.27 mg/dL
same,POTASSIUM,[3],6.1 MEQ/L
same,SODIUM,[3],150.27 MEQ/L
same,TOTAL BILIRUBIN,[3],0.2 mg/dL
same,TOTAL PROTEIN,[3],6.03 G/DL
same,URIC ACID,[3],1.53 mg/dL

# Source: ChEMBL document CHEMBL3885881, “DrugMatrix”
